Several values for one entry are separate records, joined by “and”; a condition that tells them apart may be missing. Equal entries are not always repeated.
Target: T1, human TAS2R1 (Homo sapiens, UniProt Q9NYW7)
T1 construct: expressed in transfected cells; host or cells: HEK293T-Gα16gust44
T1 sequence (Q9NYW7 1-299): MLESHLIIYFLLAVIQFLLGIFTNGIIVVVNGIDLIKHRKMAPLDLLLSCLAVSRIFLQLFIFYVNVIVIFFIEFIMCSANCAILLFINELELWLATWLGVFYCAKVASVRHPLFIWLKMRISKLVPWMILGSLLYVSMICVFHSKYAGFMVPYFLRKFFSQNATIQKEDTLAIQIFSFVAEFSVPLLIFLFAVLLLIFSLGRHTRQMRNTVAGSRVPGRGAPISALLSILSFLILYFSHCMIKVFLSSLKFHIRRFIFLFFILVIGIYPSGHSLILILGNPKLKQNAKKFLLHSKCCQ
Test: Calcium imaging assay (FLIPR), HEK293T-Gα16gust44 cells transfected with human TAS2R1
Format: cell-based
Procedure: This set of bile acids was chosen because of their commercial availability in high purities, their diversity within the class of bile acids and their previous detection and quantitation in human blood. Stock solutions were prepared in DMSO.
As basal growth medium for the HEK293T-Gα16gust44 cell line[17],[59] served Dulbecco’s modified eagle medium (DMEM) (Thermo Fisher Scientific, Darmstadt, Germany) supplemented with 10 % fetal bovine serum (Sigma-Aldrich, Steinheim, Germany), 2 mM L-glutamine (Sigma-Aldrich, Steinheim, Germany), 100 units/ml penicillin (Sigma Aldrich, Steinheim, Germany) and 100 µg/ml streptomycin (Sigma Aldrich, Steinheim, Germany). Growth conditions were 37 °C, 5 % CO2 and saturated air-humidity[60].
HEK293T-Gα16gust44 cells were seeded on poly-D-lysine (10 µg/ml) coated 96-well plates to reach a confluence of 40-60 % the next day. For transient transfection 150 ng of plasmid DNA containing the receptor of interest and 0.3 µl lipofectamine 2000 (Thermo Fisher Scientific, Darmstadt, Germany) per well were used and transfection took place according to the manual of lipofectamine 2000. […] The empty vector DNA (mock) was transfected as negative control[14],[41].
Cells were loaded using the calcium-sensitive fluorescent dye Fluo-4-AM (Abcam, Cambridge, Great Britain) in the presence of 2.5 mM probenecid (Sigma-Aldrich, Steinheim, Germany) the day after transfection[13],[41]. 1 h after loading, cells were washed with C1 buffer using a BioTek Cell Washer, incubated in the dark for half an hour and washed again. For automated agonist application and measurement of fluorescence changes, a FLIPR^TETRA device (Molecular Devices, San José, United States) was used. Viability of cells was tested by application of 100 nM Somatostatin 14 (Bachem, Bubendorf, Switzerland)[42].
Measured data were negative control corrected by subtracting the signal of the mock-transfected cells and exported to Microsoft Excel using the FLIPR software ScreenWorks 4.2. In Microsoft Excel software, standardization of maximum fluorescence intensities to the basal fluorescence and normalization to the buffer-only control was done to calculate the relative fluorescence changes (ΔF/F).
Initial screening experiments performed in duplicate wells were confirmed by at least one replication and representative traces were selected for display. All dose-response relationships were determined by three independent experiments (biological replicates) performed in duplicates (technical replicates). Threshold concentrations, defined as lowest substance concentrations leading to statistically significant elevated fluorescence changes in receptor-transfected cells compared with empty vector-transfected cells, were determined using SigmaPlot with Student’s t-test to evaluate statistical significance (p < 0.01).

SMILES: C[C@H](CCC(=O)O)[C@H]1CC[C@H]2[C@@H]3CC[C@@H]4C[C@H](O)CC[C@]4(C)[C@H]3C[C@H](O)[C@]12C [Deoxycholic Acid, deoxycholic acid]
- Efficacy = maximal amplitude (ΔF/F) (TAS2R1, bile acids, mean): 0.1101
- Efficacy (maximal amplitude ΔF/F), individual data points (TAS2R1, bile acids, single replicates, listed as DCA): 0.109 and 0.1181 and 0.1032
- RLU (Time 0 s (second time grid)): 0 RLU
- RLU (Time 2 s): 0.493 RLU
- RLU (Time 4 s): 31.4027 RLU
- RLU (Time 6 s): 3.521 RLU
- RLU (Time 8 s): -1.537 RLU
- RLU (Time 12 s): 14.8432 RLU
- RLU (Time 14 s): 0.09676 RLU
- RLU (Time 16 s): 17.8407 RLU
- RLU (Time 18 s): -2.035 RLU
- RLU (Time 18.781 s): -64.4563 RLU
- RLU (Time 20.781 s): -74.4446 RLU
- RLU (Time 22.781 s): -47.6337 RLU
- RLU (Time 24.781 s): -3.248 RLU
- RLU (Time 26.781 s): 25.7142 RLU
- RLU (Time 28.781 s): 115.435 RLU
- RLU (Time 30.781 s): 160.244 RLU
- RLU (Time 32.781 s): 224.68 RLU
- RLU (Time 34.781 s): 265.794 RLU
- RLU (Time 36.781 s): 285.115 RLU
- RLU (Time 38.781 s): 296.049 RLU
- RLU (Time 40.781 s): 331.471 RLU
- RLU (Time 42.781 s): 355.405 RLU
- RLU (Time 44.781 s): 351.369 RLU
- RLU (Time 46.781 s): 370.806 RLU
- RLU (Time 48.781 s): 359.225 RLU
- RLU (Time 50.781 s): 385.526 RLU
- RLU (Time 52.781 s): 383.683 RLU
- RLU (Time 54.781 s): 370.149 RLU
- RLU (Time 56.781 s): 369.818 RLU
- RLU (Time 58.781 s): 385.269 RLU
- RLU (Time 60.781 s): 378.237 RLU
- RLU (Time 62.781 s): 433.32 RLU
- RLU (Time 64.781 s): 415.898 RLU
- RLU (Time 66.781 s): 407.815 RLU
- RLU (Time 68.781 s): 409.61 RLU
- RLU (Time 70.781 s): 404.287 RLU
- RLU (Time 72.781 s): 403.47 RLU
- RLU (Time 74.781 s): 421.511 RLU
- RLU (Time 76.781 s): 407.874 RLU
- RLU (Time 78.781 s): 402.577 RLU
- RLU (Time 80.781 s): 400.686 RLU
- RLU (Time 82.781 s): 411.74 RLU
- RLU (Time 84.781 s): 413.712 RLU
- RLU (Time 86.781 s): 386.975 RLU
- RLU (Time 88.781 s): 406.471 RLU
- RLU (Time 90.781 s): 396.647 RLU
- RLU (Time 92.781 s): 377.402 RLU
- RLU (Time 94.781 s): 398.73 RLU
- RLU (Time 96.781 s): 400.692 RLU
- RLU (Time 98.781 s): 408.833 RLU
- RLU (Time 100.781 s): 412.535 RLU
- RLU (Time 102.781 s): 404.992 RLU
- RLU (Time 104.781 s): 431.288 RLU
- RLU (Time 106.781 s): 394.532 RLU
- RLU (Time 108.781 s): 409.236 RLU
- RLU (Time 110.781 s): 378.853 RLU
- RLU (Time 112.781 s): 368.351 RLU
- RLU (Time 114.781 s): 393.07 RLU
- RLU (Time 116.781 s): 389.914 RLU
- RLU (Time 118.781 s): 397.129 RLU
- RLU (Time 120.781 s): 358.058 RLU
- RLU (Time 122.781 s): 360.498 RLU
- RLU (Time 124.781 s): 357.848 RLU
- RLU (Time 126.781 s): 357.113 RLU
- RLU (Time 128.781 s): 380.58 RLU
- RLU (Time 130.781 s): 362.729 RLU
- RLU (Time 132.781 s): 375.09 RLU
- RLU (Time 134.781 s): 362.515 RLU
- RLU (Time 136.781 s): 330.764 RLU
- RLU (Time 137.547 s): 319.55 RLU
- RLU (Time 143.547 s): 341.925 RLU
- RLU (Time 149.547 s): 313.832 RLU
- RLU (Time 155.547 s): 317.65 RLU
- RLU (Time 161.547 s): 302.763 RLU
- RLU (Time 167.547 s): 279.035 RLU
- RLU (Time 173.547 s): 260.648 RLU
- RLU (Time 179.547 s): 266.358 RLU
- RLU (Time 185.547 s): 253.1 RLU
- RLU (Time 191.547 s): 247.046 RLU
- RLU (Time 197.547 s): 220.468 RLU
- RLU (Time 203.547 s): 236.267 RLU
- RLU (Time 209.547 s): 247.998 RLU
- RLU (Time 215.547 s): 197.659 RLU
- RLU (Time 221.547 s): 234.297 RLU
- RLU (Time 227.547 s): 187.946 RLU
- RLU (Time 233.547 s): 202.574 RLU
- RLU (Time 239.547 s): 164.983 RLU
- RLU (Time 245.547 s): 168.248 RLU
- RLU (Time 293.547 s): 151.715 RLU
- RLU (Time 299.547 s): 145.558 RLU
- RLU (calcium trace, sheet TAS2R1, Time 305.547 s): 138.546 RLU
- RLU (calcium trace, sheet TAS2R1, Time 311.547 s): 132.623 RLU
- RLU (calcium trace, sheet TAS2R1, Time 317.547 s): 129.733 RLU
- RLU (calcium trace, sheet TAS2R1, Time 323.547 s): 134.84 RLU
- RLU (calcium trace, sheet TAS2R1, Time 329.547 s): 140.029 RLU
- RLU (calcium trace, sheet TAS2R1, Time 335.547 s): 144.9 RLU
- RLU (calcium trace, sheet TAS2R1, Time 341.547 s): 152.792 RLU
- RLU (calcium trace, sheet TAS2R1, Time 347.547 s): 132.414 RLU
- RLU (calcium trace, sheet TAS2R1, Time 353.547 s): 137.138 RLU
- RLU (calcium trace, sheet TAS2R1, Time 359.547 s): 131.392 RLU
- EC50 (calculated where receptor saturation was reached): 6.1 ± 0.6 µM
- Activation threshold concentration TAS2R1 (lowest concentration with significantly increased fluorescence vs empty vector (p < 0.01)): 3 µM and 3.00 µM

From article PMC10247784, “Physiological activation of human and mouse bitter taste receptors by bile acids” (Communications Biology, 2023)
